Read-outs that look alike come from different tables or passages of the source.
How the values were obtained:
Type in all cases: cell-based, human
[1] = test system: MCF-7 breast cancer cells; experiment: Exosome release by acetylcholinesterase (AchE) assay, MCF-7; conditions: MCF-7 cells, five-day treatment
Method: (§1) 1-6. Exosome isolation and purification. Exosomes were isolated from breast cancer cells by differential centrifugation as previously described (Ali SA. et al., 2010). Untreated tumor cells were used as a control. Briefly, the above treated and untreated cell culture supernatants were centrifuged at 400×g for 10 minutes. The supernatants were transferred to a clear tube and centrifuged at 10,000×g for 30 minutes. The supernatants from the second spin were ultracentrifuged at 200,000×g for 2 hours to pellet exosomes. Finally, the exosome pellets were re-suspended with PBS and stored at 4° C. until used for analysis.
(§2) 1-7. Exosome characterization by acetylcholinesterase (AchE) assay. Purified exosomes were quantitated by measurement of AchE as described (Ellman et al., 1961). Briefly, a 100 mM dithibionitrobenzoic (DTNB) solution was prepared for use as a stock color indicator, and a 28.9 mg/mL acetylthiocholine iodide in PBS solution was prepared as a stock substrate. The stock substrate stock can be stored at −20° C. up to one month, while the color indicator can be stored at 4° C. for two weeks. A working solution was prepared by mixing 10 mL of PBS with 200 μL of Substrate and 500 μl of DTNB. 50 μL of each exosome sample was transferred to 96 well microtitre plates, and a standard curve was prepared using AchE from 0.98 mU/mL to 2000 mU/mL. After 50 μL of standards were added into separate wells, 200 μL of the working solution was added to all wells. After 20 min incubation, AchE activity was measured at 450 nm using a SpectroMax M5 fluorimeter.
(§3) 7-5. Exosome isolation and purification. Exosomes were isolated from breast cancer cells and leukemia cells using the ExoQuick-TC Exosome Precipitation Kit (System Biosciencences [SBI], Mountain View Calif.) or the miRCURY Exosome Isolation Kit (EXIQON, Woburn, Mass.) according to the manufacturer's instructions. Untreated tumor cells were used as a control. Briefly, treated and untreated cell culture supernatants (10 mL) were centrifuged at 3000×g for 15 minutes. The resulting supernatants were transferred to a clear tube, 2 mL of ExoQuick-TC buffer was added, mixed and incubated overnight at 4° C. Following the incubation, the sample contents were centrifuged at 1500×g for 30 minutes, the supernatants were aspirated off, the pellets were centrifuged at 1500×g for 5 minutes and any further traces of supernatant were removed (SBI). Alternatively, treated and untreated cell culture supernatants were centrifuged at 10,000×g for 5 minutes to remove cell debris, supernatants (10 ml) were transferred into new tubes, and 4 mL of precipitation buffer (EXIQON) was added, and the contents were mixed and incubated at 4° C. overnight. Following the incubation, the sample contents were centrifuged at 10,000×g for 30 minutes (EXIQON). Exosome-containing pellets were re-suspended in PBS and stored at 4° C. or −80° C.
(§4) 7-6. Exosome characterization by acetylcholinesterase (AchE) assay. Purified exosomes were quantitated by measurement of AchE as previously described (Huang et al., Oncotarget, 2017. 8(7): pp. 11302-11315). Briefly, 100 mM dithibionitrobenzoic (DTNB) was prepared as a stock color indicator, and prepared a stock substrate containing 28.9 mg/mL of acetylthiocholine iodide in PBS. Substrate stock can be stored at −20° C. up to one month; the stock color indicator can be stored at 4° C. for two weeks. A working solution was prepared by mixing 10 mL of PBS with 200 μL of substrate and 500 μl of DTNB. 50 μL of each exosome sample was transferred to a 96 well microtitre plate, and a standard curve for AchE concentrations was prepared using AchE from 0.98 mU/mL to 2000 mU/mL. After 50 μL of standards were added into separate wells, 200 μL of the working solution was added to each well. After a 20 min incubation, AchE activity was measured at 450 nm using a SpectroMax M5 fluorometer (FIG. 11).

[2] = test system: MDA-MB-231 breast cancer cells; experiment: Exosome release by acetylcholinesterase (AchE) assay, MDA-MB-231; conditions: MDA-MB-231 cells, five-day treatment, day 1; mock 146.52
Method: as §1, §2, §3, §4

[3] = test system: MCF-7 breast cancer cells; experiment: MTT proliferation assay, MCF-7; conditions: MCF-7 cells
Method: (§5) 1-3. Viability and proliferation. Human breast cancer cell lines were seeded into 96-well plates (5000 cells/well) and treated for 24 hours with various concentrations of SMR peptides including PEG-SMRwt-Clu, PEG-SMRwt and PEG-SMRmut to determine IC50 (inhibition concentration). Cell proliferation was determined using the MTT assay (Molecular Devices, Sunnyvale, Calif.). Control experiments were performed with MTT treated cells alone and untreated cells, and on this basis, the incubation times of 24 hr and 48 hr were used for an MTT assay of peptide-treated cells (Stockerta JC. et al., 2012 and Riss TL. et al., 2015).
(§6) 7-4. Cell proliferation and cytotoxicity assay. Human breast cancer cell lines MCF-7, MDAMB-231, and leukemia K562 cells, and non-tumorigenic MCF-10A cells are seeded into 96-well plates (5000 cells/well) and treated for 24 hours with 0-1120 nM SMRwt-CPP or SMRmut-CPP (FIG. 10). Cell proliferation was determined using the MTT [3-(4,5-dimethylthiazol-2-yl)-2,5-diphenyltetrazolium bromide] dye assay by SpectraMax M5 Fluorescence Plate Reader (Molecular Devices. Sunnyvale, Calif.). Cell viability was estimated by the conversion of yellow MTT by mitochondrial dehydrogenases of living cells to purple formazon (MTT assay). Control experiments were performed with cells treated or untreated with MTT, and on this basis, an incubation time of 24 hours was used for MTT assays of peptide-treated cells (Huang, M. B., et al., Oncotarget, 2017. 8(7): pp. 11302-11315.). Statistical significance of results was determined from three independent experiments including triplet or quadruplet sets in each experiment.

[4] = test system: MDA-MB-231 breast cancer cells; experiment: MTT proliferation assay, MDA-MB-231; conditions: MDA-MB-231 cells
Method: as §5, §6

[5] = 24 hours, MTT, read-out: 50% inhibition of cell growth
[6] = 24 hours, read-out: SMR at IC50 concentration

In the case of “SMRmut-CPP (AGFPVAAAGFPVGRKKRRQRRRPPQ) [SEQ ID NO: 41]”, the “AchE concentration on day 3” value ([1]; day 3, mock 69.15) is reported as 66.05 mU/mL, the “AchE concentration, initial increase” value ([1]; days 1 and/or 2, mock 155.13) is reported as 150.06 mU/mL and the “AChE initial increase on day 1” value [2] is reported as 141.47 mU/mL.

With `N.N.[Cl][Pt][Cl]` [cisplatin, reference compound] the “experimentally determined IC50 dosage” value ([3]; data not shown) was 3000 µg/mL and the “experimentally determined IC50 dosage” value ([4]; data not shown) was 2000 µg/mL.

Molecule `CC(=O)O[C@H]1C(=O)[C@@]2(C)[C@H]([C@H](OC(=O)c3ccccc3)[C@]3(O)C[C@H](OC(=O)[C@H](O)[C@@H](NC(=O)c4ccccc4)c4ccccc4)C(C)=C1C3(C)C)[C@]1(OC(C)=O)CO[C@@H]1C[C@@H]2O` [paclitaxel, reference compound] has an IC50 ([3]; Homo sapiens, MCF7, data not shown, read-out: experimentally determined IC50 dosage) of 1600 nM and an IC50 ([4]; Homo sapiens, data not shown, read-out: experimentally determined IC50 dosage) of 1600 nM.

“NXNVGFPVAAVGFPV (SEQ ID NO: 36) [PEG-SMRwt]” showed an IC50 [3, 5] of 280 nM, an IC50 [3, 6] of 280 nM and an IC50 [4, 5] of 420 nM. It also gave an IC50 [4, 6] of 420 nM.
